Test results as given in ChEMBL document CHEMBL1201862, “PubChem BioAssay data set” (2004).
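Five concentrations, 48 hours, 96-well plates. GI50 marks 50% less growth.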 Calls of active or inactive are those of the source. Rule as the data show it: active = GI50 up to about 1.1 µM and inactive = higher.

Experiments:
Assay in all cases: inhibition of tumour cell growth, NCI panel, 48 h
OVCAR-4 = test system: OVCAR-4
EKVX = test system: EKVX
UO-31 = test system: UO-31
A498 = test system: A498
RPMI-8226 = test system: RPMI-8226
HOP-62 = test system: HOP-62
HCC 2998 = test system: HCC 2998
SK-MEL-2 = test system: SK-MEL-2
IGROV-1 = test system: IGROV-1
SW-620 = test system: SW-620
HCT-116 = test system: HCT-116
RXF 631 = test system: RXF 631
SF-539 = test system: SF-539
RXF 393 = test system: RXF 393
UACC-257 = test system: UACC-257
M14 = test system: M14
K562 = test system: K562
NCI-H226 = test system: NCI-H226
786-0 = test system: 786-0
NCI-H522 = test system: NCI-H522
U-251 = test system: U-251
KM12 = test system: KM12
COLO 205 = test system: COLO 205
DMS-273 = test system: DMS-273
LOX IMVI = test system: LOX IMVI
SK-OV-3 = test system: SK-OV-3
NCI-H23 = test system: NCI-H23
KM-20L2 = test system: KM-20L2
OVCAR-8 = test system: OVCAR-8
CCRF-CEM = test system: CCRF-CEM
MOLT-4 = test system: MOLT-4
SK-MEL-5 = test system: SK-MEL-5
TK-10 = test system: TK-10
NCI-H460 = test system: NCI-H460
M19-MEL = test system: M19-MEL
HT-29 = test system: HT-29
UACC-62 = test system: UACC-62
ACHN = test system: ACHN
HOP-18 = test system: HOP-18
A549 = test system: A549
HOP-92 = test system: HOP-92
HL-60 = test system: HL-60
HCT-15 = test system: HCT-15
SNB-75 = test system: SNB-75
DMS-114 = test system: DMS-114
SNB-19 = test system: SNB-19
SN12C = test system: SN12C
OVCAR-3 = test system: OVCAR-3
SF-268 = test system: SF-268
SF-295 = test system: SF-295
SNB-78 = test system: SNB-78
SK-MEL-28 = test system: SK-MEL-28
XF498 = test system: XF498
LXFL 529 = test system: LXFL 529
OVCAR-5 = test system: OVCAR-5
DLD-1 = test system: DLD-1
CAKI-1 = test system: CAKI-1
Malme-3M = test system: Malme-3M

Compound: COc1cc([C@@H]2OC(=O)C3C2C(=O)O[C@H]3c2cc(OC)c(OC)c(OC)c2)cc(OC)c1OC (stereo partly specified)
- GI50 (OVCAR-4): > 100 µM (inactive)
- GI50 (EKVX): > 100 µM (inactive)
- GI50 (UO-31): > 100 µM (inactive)
- GI50 (A498): > 100 µM (inactive)
- GI50 (RPMI-8226): > 100 µM (inactive)
- GI50 (HOP-62): > 100 µM (inactive)
- GI50 (HCC 2998): > 100 µM (inactive)
- GI50 (SK-MEL-2): > 100 µM (inactive)
- GI50 (IGROV-1): > 100 µM (inactive)
- GI50 (SW-620): > 100 µM (inactive)
- GI50 (HCT-116): > 100 µM (inactive)
- GI50 (RXF 631): > 100 µM (inactive)
- GI50 (SF-539): > 100 µM (inactive)
- GI50 (RXF 393): > 100 µM (inactive)
- GI50 (UACC-257): > 100 µM (inactive)
- GI50 (M14): > 100 µM (inactive)
- GI50 (K562): > 100 µM (inactive)
- GI50 (NCI-H226): 38.8 µM (inactive)
- GI50 (786-0): > 100 µM (inactive)
- GI50 (NCI-H522): > 100 µM (inactive)
- GI50 (U-251): > 100 µM (inactive)
- GI50 (KM12): > 100 µM (inactive)
- GI50 (COLO 205): > 100 µM (inactive)
- GI50 (DMS-273): > 100 µM (inactive)
- GI50 (LOX IMVI): > 100 µM (inactive)
- GI50 (SK-OV-3): > 100 µM (inactive)
- GI50 (NCI-H23): > 100 µM (inactive)
- GI50 (KM-20L2): > 100 µM (inactive)
- GI50 (OVCAR-8): > 100 µM (inactive)
- GI50 (CCRF-CEM): > 100 µM (inactive)
- GI50 (MOLT-4): > 100 µM (inactive)
- GI50 (SK-MEL-5): > 100 µM (inactive)
- GI50 (TK-10): > 100 µM (inactive)
- GI50 (NCI-H460): > 100 µM (inactive)
- GI50 (M19-MEL): > 100 µM (inactive)
- GI50 (HT-29): > 100 µM (inactive)
- GI50 (UACC-62): > 100 µM (inactive)
- GI50 (ACHN): > 100 µM (inactive)
- GI50 (HOP-18): > 100 µM (inactive)
- GI50 (A549): > 100 µM (inactive)
- GI50 (HOP-92): > 100 µM (inactive)
- GI50 (HL-60): > 100 µM (inactive)
- GI50 (HCT-15): > 100 µM
- GI50 (SNB-75): > 100 µM (inactive)
- GI50 (DMS-114): > 100 µM (inactive)
- GI50 (SNB-19): > 100 µM (inactive)
- GI50 (SN12C): > 100 µM (inactive)
- GI50 (OVCAR-3): > 100 µM (inactive)
- GI50 (SF-268): > 100 µM (inactive)
- GI50 (SF-295): > 100 µM (inactive)
- GI50 (SNB-78): > 100 µM (inactive)
- GI50 (SK-MEL-28): > 100 µM (inactive)
- GI50 (XF498): 6.08 µM (inactive)

Compound: O=C1c2cccc3c(Cl)ccc(c23)C(=O)N1CCCN1CCN(CCCN2C(=O)c3cccc4c(Cl)ccc(c34)C2=O)CC1
- GI50 (OVCAR-4): > 100 µM (inactive)
- GI50 (EKVX): > 100 µM (inactive)
- GI50 (LXFL 529): > 100 µM (inactive)
- GI50 (UO-31): > 100 µM (inactive)
- GI50 (OVCAR-5): > 100 µM (inactive)
- GI50 (A498): > 100 µM (inactive)
- GI50 (RPMI-8226): > 100 µM (inactive)
- GI50 (HOP-62): > 100 µM (inactive)
- GI50 (HCC 2998): 53.3 µM (inactive)
- GI50 (SK-MEL-2): > 100 µM (inactive)
- GI50 (IGROV-1): > 100 µM (inactive)
- GI50 (SW-620): > 100 µM (inactive)
- GI50 (HCT-116): 66.7 µM (inactive)
- GI50 (RXF 631): 76.7 µM (inactive)
- GI50 (SF-539): > 100 µM (inactive)
- GI50 (UACC-257): > 100 µM (inactive)
- GI50 (M14): > 100 µM (inactive)
- GI50 (K562): 86.1 µM (inactive)
- GI50 (NCI-H226): > 100 µM (inactive)
- GI50 (786-0): 64.4 µM (inactive)
- GI50 (U-251): 55.7 µM (inactive)
- GI50 (DLD-1): 50.5 µM (inactive)
- GI50 (KM12): > 100 µM (inactive)
- GI50 (COLO 205): > 100 µM (inactive)
- GI50 (DMS-273): > 100 µM (inactive)
- GI50 (LOX IMVI): > 100 µM (inactive)
- GI50 (SK-OV-3): > 100 µM (inactive)
- GI50 (NCI-H23): 97.1 µM (inactive)
- GI50 (KM-20L2): 46.2 µM (inactive)
- GI50 (OVCAR-8): 50.9 µM (inactive)
- GI50 (CCRF-CEM): > 100 µM (inactive)
- GI50 (CAKI-1): > 100 µM (inactive)
- GI50 (MOLT-4): 57.3 µM (inactive)
- GI50 (SK-MEL-5): > 100 µM (inactive)
- GI50 (TK-10): > 100 µM (inactive)
- GI50 (NCI-H460): > 100 µM (inactive)
- GI50 (HT-29): > 100 µM (inactive)
- GI50 (UACC-62): > 100 µM (inactive)
- GI50 (ACHN): 81.8 µM (inactive)
- GI50 (HOP-18): > 100 µM (inactive)
- GI50 (A549): > 100 µM (inactive)
- GI50 (HOP-92): > 100 µM (inactive)
- GI50 (HL-60): > 100 µM (inactive)
- GI50 (HCT-15): > 100 µM
- GI50 (SNB-75): 40.2 µM (inactive)
- GI50 (DMS-114): > 100 µM (inactive)
- GI50 (SNB-19): > 100 µM (inactive)
- GI50 (SN12C): > 100 µM (inactive)
- GI50 (OVCAR-3): > 100 µM (inactive)
- GI50 (Malme-3M): > 100 µM (inactive)
- GI50 (SF-295): 97.1 µM (inactive)
- GI50 (SNB-78): 90.8 µM (inactive)
- GI50 (XF498): > 100 µM (inactive)
